Measured values published in ChEMBL document CHEMBL3763023, “Amido/ureidosubstituted benzenesulfonamides-isatin conjugates as low nanomolar/subnanomolar inhibitors of the tumor-associated carbonic anhydrase isoform XII” (Eur J Med Chem, 2016).

Experiments:
Carbonic anhydrase 9 = Carbonic anhydrase 9 (Homo sapiens, UniProt Q16790); assay: Inhibition of recombinant human carbonic anhydrase 9 incubated for 15 mins prior to testing by stopped flow carbon dioxide hydrase assay
Carbonic anhydrase 2 = Carbonic anhydrase 2 (Homo sapiens, UniProt P00918); assay: Inhibition of recombinant human carbonic anhydrase 2 incubated for 15 mins prior to testing by stopped flow carbon dioxide hydrase assay

Structure (SMILES)	Ki (Carbonic anhydrase 9) [nM]	Ki (Carbonic anhydrase 2) [µM]
Nc1ccc(C(=O)Nc2ccc(S(N)(=O)=O)cc2)cc1	159	
NS(=O)(=O)c1ccc(NC(=O)Nc2ccc(/N=C3\C(=O)Nc4ccccc43)cc2)cc1	217	
NS(=O)(=O)c1ccc(NC(=O)c2ccc(/N=C3\C(=O)Nc4ccccc43)cc2)cc1	240	
NS(=O)(=O)c1ccc(NC(=O)c2ccc(/N=C3\C(=O)Nc4ccc(Cl)cc43)cc2)cc1	194	
NS(=O)(=O)c1ccc(NC(=O)Nc2ccc(/N=C3\C(=O)Nc4ccc(Br)cc43)cc2)cc1	192	> 10
NS(=O)(=O)c1ccc(/N=C2\C(=O)Nc3ccc([N+](=O)[O-])cc32)cc1	5	
NS(=O)(=O)c1ccc(NC(=O)Nc2ccc(/N=C3\C(=O)Nc4ccc(F)cc43)cc2)cc1	235	
NS(=O)(=O)c1ccc(NC(=O)c2ccc(/N=C3\C(=O)Nc4ccc(Br)cc43)cc2)cc1	208	
NS(=O)(=O)c1ccc(NC(=O)Nc2ccc(/N=C3\C(=O)Nc4ccc(Cl)cc43)cc2)cc1	239	
NS(=O)(=O)c1ccc(NC(=O)Nc2ccc(/N=C3\C(=O)Nc4ccc([N+](=O)[O-])cc43)cc2)cc1	14.8	
Cc1ccc2c(c1)/C(=N/c1ccc(NC(=O)Nc3ccc(S(N)(=O)=O)cc3)cc1)C(=O)N2	16.7	
